Data published in US9278087B2, “Derivative of butylphthalide and preparation method and use thereof” (Shijiazhuang Yiling Pharmaceutical Co., Ltd, priority 2011, dated 2016).
Counter-ions that a name gives are not always drawn. Like-named read-outs stand apart in the source and are kept apart here. Marks after values point to notes of the source that are not given here.

Tests used:
[1] = tested on: mice induced by pentobarbital sodium; experiment: Hypnosis test of pentobarbital sodium in dosage above threshold; assay type: in vivo, Kunming mice; conditions: for Time for falling asleep / Sleeping time: 25 mg/kg gavage for 30 days, pentobarbital sodium 50 mg/kg i.p.; for Sleeping time: within 60 min; for Effect of improving sleep, in words: oral administration to mice for 30 days, summary of both hypnosis tests
Method: (§1) Source of animals: Kunming mice, 18˜22 g, male, were clean grade animals provided by Guangdong Medical Lab Animal Center. In the breeding room of the experimental animals, the temperature was 22±2° C., the relative humidity was 55˜70%, and the animal feed was provided by Guangdong Medical Lab Animal Center.
(§2) 3 groups of Compound 7, Compound 8, DL-3-(3′-hydroxy)-butylphthalide (DL for short) were set in the experiment, 25 mg/kg respectively. And distilled water control group was additionally set.
(§3) Sample processing: 25 mg respective sample was taken, and added with distilled water to 20 ml, to form a uniform suspension, for use in the test.
(§4) Route for administration: gavage
(§5) 40 male mice with a body weight of 18˜22 g were selected, and randomly divided into 4 groups, 10 mice in each group. They were consecutively administered with samples for 30 days, and 15 min after the administration of the samples by gavage on the 30th day, each group of animals were i.p. injected with 50 mg/kg.b.w pentobarbital sodium, and the injection amount was 0.2 ml/20 g.b.w. The criterion for judging falling asleep was that the righting reflex in a mouse disappeared for 1 min or more. The time for falling asleep and the sleeping time of each group of animals within 60 min were observed after administration of pentobarbital sodium.

[2] = tested on: mice induced by pentobarbital sodium; experiment: Hypnosis test of pentobarbital sodium in dosage below threshold; assay type: in vivo, Kunming mice; conditions: for Incidence of sleep / Number of animals falling asleep: 25 mg/kg gavage, pentobarbital sodium 30 mg/kg i.p., within 25 min; for Number of animals falling asleep: 10 animals per group; for Number of animals falling asleep and incidence of sleep compared with control group, in words: pentobarbital sodium in dosage below threshold
Method: as §1, §2, §3, §4
as §5, with “for 28” for “for 30”, “with 30” for “with 50”, “for” for “for falling asleep and”, “the occurrence of sleep” for “the sleeping time”, “within 25” for “within 60”

[3] = tested on: rats with local ischemia; experiment: Volume of cerebral infarction in tMCAO rats, gavage administration; assay type: in vivo, Wistar rats; conditions: for Volume of cerebral infarction (25 mg/kg group): 25 mg/kg oral (gavage) 10 min after ischemia; for Volume of cerebral infarction (25 mg/kg group) / Volume of cerebral infarction (50 mg/kg group) / Volume of cerebral infarction (100 mg/kg group): 2 hr ischemia, 24 hr reperfusion; for Volume of cerebral infarction (50 mg/kg group): 50 mg/kg oral (gavage) 10 min after ischemia; for Volume of cerebral infarction (100 mg/kg group): 100 mg/kg oral (gavage) 10 min after ischemia; for Effect on the volume of cerebral infarction, in words: oral administration, compared with solvent control group
Method: (§6) Wistar rats, body weight 250˜280 g, were raised separately before and after the surgical operation, and kept at room temperature of 23˜25° C. All the rats were allowed ad libitum access to food and water. tMCAO models were prepared according to the method of longa, et al. Rats were anaesthetized with 10% chloral hydrate (350 mg/kg, i.p.), and the body temperature was maintained at 37±0.5° C. The rat was fixed in supine position onto an operating table. The skin was cut along the midline of the neck, and the common carotid artery (CCA), external carotid artery (ECA) and internal carotid artery (ICA) on the right side were carefully isolated. The ECA was ligated and cut, and straightened in line with the ICA. A small incision was cut on the ECA, and a 4.0 cm long round-head silicified nylon thread with a diameter of 0.26 mm (coated with 0.1% polylysine) was inserted through this incision into the ICA for about 1.85˜2.00 cm, until the starting place of the anterior cerebral artery of the rat, to block the blood supply of the middle cerebral artery. After 2 hr of ischemia, the nylon thread was pulled out carefully, the ECA incision was ligated, and the operational incision was sutured. The animal was returned to the cage for 24 hr reperfusion.
Rats were randomly divided into 12 groups: model control group, water for injection (100 mg/kg), the administration group of the Compound 7 in Example 1 (25, 50, 100 mg/kg), the administration group of the Compound 8 in Example 1 (25, 50, 100 mg/kg), the administration group of DL-3-(3′-hydroxy)-butylphthalide (DL for short) (25, 50, 100 mg/kg). They were orally administered 10 min after the ischemia caused by MCA blockage.
(§7) After reperfusion injury in the rat for 24 hr, the rat was beheaded and the brain was taken out immediately. The olfactory tract, the cerebellum and the low brain stem were removed. The brain was coronally cut into 6 slices (the first slice to the fifth slice was 2 mm/slice, and the sixth slice was 4 mm), and they were rapidly placed into 5 ml solution containing 1.5 ml 4% TTC and 0.1 ml 1 M K2HPO4 to stain (37° C., shielded from light) for 20˜30 min, wherein they are flipped once every 5 min. After the TTC staining, the normal tissue was dark stained and appeared red, and the infarcted tissue appeared white. Each group of brain slices were neatly arranged and were taken photos for preservation. The infarction area in each slice was calculated, and the infarction volume was finally converted by superposition. The infarction volume was expressed in percentage in a cerebral hemisphere, to eliminate the effects of cerebral edema. Brain infarction volume(%)=(volume of the contralateral hemisphere to the operated side−volume of uninfarcted portion of the operated hemisphere)/volume of the contralateral hemisphere to the operated side*100% (4) Experimental Results

[4] = Solubility in water; assay type: physicochemical
[5] = tested on: rats with local ischemia; assay type: in vivo
Method: as §6, §7
Rats of the ischemia blocking model in Example 11 were taken, and randomly divided into 12 groups: sham operation group, model control group, (water for injection, 10 mg/kg), 1a group (2.5 mg/kg, 5.0 mg/kg, 10 mg/kg), 1b group (2.5 mg/kg, 5.0 mg/kg, 10 mg/kg), and 1c group (2.5 mg/kg, 5.0 mg/kg, 10 mg/kg). 10 min after ischemia caused by MCA blockage, they were administered intravenously.
The determination of the volume of cerebral infarction was the same to Example 4.

[6] = 2.5 mg/kg intravenous 10 min after ischemia, 2 hr ischemia, 24 hr reperfusion
[7] = 5.0 mg/kg intravenous 10 min after ischemia, 2 hr ischemia, 24 hr reperfusion
[8] = 10.0 mg/kg intravenous 10 min after ischemia, 2 hr ischemia, 24 hr reperfusion

Structure (SMILES)	Time for falling asleep [1] [min]	Sleeping time [1] [min]	Effect of improving sleep, in words [1]	Incidence of sleep [2]	Number of animals falling asleep [2]	Number of animals falling asleep and incidence of sleep compared with control group, in words [2]	Volume of cerebral infarction (25 mg/kg group) [3] [%]	Volume of cerebral infarction (50 mg/kg group) [3] [%]	Volume of cerebral infarction (100 mg/kg group) [3] [%]	Effect on the volume of cerebral infarction, in words [3]	Volume of cerebral infarction (2.5 mg/kg group) [5, 6] [%]	Volume of cerebral infarction (5.0 mg/kg group) [5, 7] [%]	Volume of cerebral infarction (10.0 mg/kg group) [5, 8] [%]	other results
CC(O)CCC1OC(=O)c2ccccc21 (racemic) [DL, DL-3-(3′-hydroxy)-butylphthalide, reference compound]	4.68 ± 1.35	45.48 ± 11.23	have effects of improving sleep	50%	5	have significant difference	17.2	16.4	14.5	can significantly reduce the volume of cerebral infarction	–	–	–	–
CC(O)CC[C@H]1OC(=O)c2ccccc21 (single isomer, unassigned; (+)) [Compound 7]	5.78 ± 1.88	41.16 ± 7.80	does not have the effect of improving sleep	30%	3	–	19.8	18.9	–	did not effectively reduce the volume of cerebral infarction	–	–	–	Effect on the volume of cerebral infarction, in words ([3]; listed as R-configuration): cannot affect the cerebral infarct volume; Effect on the volume of cerebral infarction, in words ([3]; listed as compound in R-configuration): does not have the effect of reducing the cerebral infarct volume
CC(O)CC[C@@H]1OC(=O)c2ccccc21 (single isomer, unassigned; (-)) [Compound 8]	3.91 ± 0.99	53.28 ± 11.12	have effects of improving sleep	80* %	8*	have significant difference	14.6	13.8	11.8	can significantly reduce the volume of cerebral infarction	–	–	–	Effect of improving sleep, in words ([1]; listed as S-configuration): can improve the sleeping state in animals; Effect of improving sleep, in words ([1]; listed as S-configuration of the Metabolite I): has the effect of improving sleep; Time for falling asleep and sleeping time compared with control group, in words ([1]; pentobarbital sodium in dosage above threshold): have significant difference; Solubility in water, in words [4]: insoluble in water; Effect on the volume of cerebral infarction, in words ([3]; listed as S-configuration): decreasing the cerebral infarct volume
CC(CC[C@@H]1OC(=O)c2ccccc21)OC(=O)CCC(=O)[O-].[Na+] (stereo partly drawn) [Compound 1a, sodium salt of (S)-3-(3′-succinate ester)butylphthalide]	–	–	–	–	–	–	–	–	–	–	21	15.4	11.8	–
CC(CC[C@@H]1OC(=O)c2ccccc21)OC(=O)CN (stereo partly drawn) [Compound 1b, (S)-3-(3′-glycinate ester)butylphthalide hydrochloride]	–	–	–	–	–	–	–	–	–	–	–	–	–	Volume of cerebral infarction (2.5 mg/kg group) ([5]; rat, in vivo): 21.3%; Volume of cerebral infarction (5.0 mg/kg group) ([5]; rat, in vivo): 16.0%; Volume of cerebral infarction (10.0 mg/kg group) ([5]; rat, in vivo): 12.0%
CC(CC[C@@H]1OC(=O)c2ccccc21)OP(=O)([O-])[O-].[Na+].[Na+] (stereo partly drawn) [Compound 1c, (S)-3-(3′-phosphate ester)butylphthalide disodium salt]	–	–	–	–	–	–	–	–	–	–	20.6	15.8	11.7	–
